Where a SMILES comes first, the peptide text is derived from it. Bridges are numbered along the chain shown (N, C = ends). [ ]: non-standard residue; d: D form. The star is where a group is joined. FITC = O=C1OC2(c3ccc(O)cc3Oc3cc(O)ccc32)c2ccc(NC(=S)*)cc21; Ahx = NCCCCCC(=O)O
Tests used:
[1] = system: various cancer cell lines; assay: Apoptosis in various cancer cell lines; format: cell-based
Method: (§1) Apoptosis assays—For nuclear morphological change analysis, cells were trypsinized, washed with PBS, fixed with 3.7% paraformaldehyde, and stained with DAPI (4,6-diamidino-2-phenylindole) (50 μg/ml) to visualize the nuclei by UV-microscopy. The percentages of apoptotic cells were determined by counting 300 GFP-positive cells, scoring cells having nuclear fragmentation and/or chromatin condensation.

Bcl-2 [2] = biological target: T1, Bcl-2 (Homo sapiens, UniProt P10415); assay: Co-immunoprecipitation with Bcl-2 in HEK293T cells; format: binding; set-up: expressed in transfected cells; host or cells: HEK293T
Method: Nur77 peptide binds anti-apoptotic Bcl-2 family members. Nur77-peptide binds Bcl-B, Bfl-1, and Bcl-2, but not Mcl-1 and Bcl-xL. […] The expression vector for the GFP-Nur77/489-497 fusion was transfected into HEK293T cells together with or without the indicated expression vector for myc-tagged Bcl-2 family member. Cell lysates were prepared and analyzed for interaction of Nur77/489-497 with Bcl-2 family members by co-immunoprecipitation assay using anti-Myc antibody. Immunoprecipitates were then separated on SDS/PAGE and immunoblotted using anti-GFP antibody. […] Nur77/Bcl-2 interaction assays—Reporter gene assays using NurRE-tk-CAT in CV-1 cells, and GST pull-down assay were described previously (Li, et al. 2000 Science 289:1159-1164). For the mammalian two-hybrid assays, CV-1 cells were co-transfected with pcDNA-Gal4TAD-Nur77 or pcDNA-Gal4TAD-Nur77/ΔDBD and pcDNA-Gal4 DBD-Bcl-2/ΔTM along with a luciferase reporter gene driven by four copies of the Gal-4-binding site. The cells were harvested and reporter gene activity was measured. For Co-IP assays, HEK293T cells were transiently transfected with various expression plasmids using a modified calcium phosphate precipitation method (Wu et al, 1997) in the presence of caspase inhibitors (zVAD-fmk) to prevent degradation of Nur77 protein due to apoptosis. Cells were suspended in lysis buffer (50 mM Tris-HCl, PH7.4; 150 mM NaCl; 20 mM EDTA; 1% NP-40; 1 mM PMSF; 50 μg/ml Leupeptin; […]; 0.1 mM Na3VO4; and 1 mM DTT). Cells extracts were cleared by incubation with the Protein A/G plus Agarose beads (Santa Cruz) and then incubated with appropriate antibody and 30 μl of Protein A or G plus Agarose beads overnight at 4° C. […] Immunoreactive products were detected by chemiluminescence with an enhanced chemiluminescence system (ECL) (Amersham).
Target sequence in this assay (P10415 whole entry, the tested form may be a part): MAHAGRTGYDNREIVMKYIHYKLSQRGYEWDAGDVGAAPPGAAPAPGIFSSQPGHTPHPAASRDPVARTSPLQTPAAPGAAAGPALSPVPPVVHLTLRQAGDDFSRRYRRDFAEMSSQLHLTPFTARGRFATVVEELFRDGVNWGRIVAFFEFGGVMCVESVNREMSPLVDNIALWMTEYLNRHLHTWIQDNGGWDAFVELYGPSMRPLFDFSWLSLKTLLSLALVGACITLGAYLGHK

[3] = system: normal primary mammary epithelial cells; assay: Apoptosis in normal primary mammary epithelial cells; format: cell-based
Method: as §1

[4] = system: ZR-75-1 breast cancer cells; assay: Apoptosis in ZR-75-1 breast cancer cells; format: cell-based; conditions: <10 μM peptide
Method: as §1

H460 lung cancer cells = assay: Apoptosis in H460 lung cancer cells; format: cell-based
Jurkat or CEM cells = assay: Apoptosis in Jurkat or CEM cells stably expressing Bcl-2; format: cell-based
Method: Cell culture. H460 lung cancer cells were maintained in RPMI 1640 medium supplemented with 10% fetal bovine serum (FBS). HEK293T embryonic kidney cells were grown in DME medium supplemented with 10% FBS. Jurkat and Jurkat cells stably expressing Bcl-2 were kindly provided by Dr. John Reed, and they were maintained in RPMI1640 medium.

GST-Bcl-2 [5] = biological target: T2, GST-Bcl-2 (Homo sapiens, UniProt P10415); assay: Fluorescence polarization (FP) assay, GST-Bcl-2; format: binding
T2 construct: made in house
T2 sequence (P10415 whole entry): as the sequence (P10415 whole entry, the tested form may be a part) above
Method: (§2) Fluorescence polarization (FP) assays. GST-Bcl-2, GST-Bcl-XL, or GST protein was briefly incubated with FITC-conjugated peptide with or without competitors in Greiner Fluotrac 600 96-well microplates. Fluorescence polarization was recorded using an Analyst HT 96-384 microplate reader (Molecular Devices, Sunnyvale, Calif.) with excitation wavelength set at 485 nm and dynamic polarizer for emission at 530 nm.

GST-Bcl-XL = GST-Bcl-XL (Homo sapiens, UniProt Q07817); assay: Fluorescence polarization (FP) assay, GST-Bcl-XL; format: binding
GST-Bcl-XL, sequence (Q07817 whole entry, species assumed): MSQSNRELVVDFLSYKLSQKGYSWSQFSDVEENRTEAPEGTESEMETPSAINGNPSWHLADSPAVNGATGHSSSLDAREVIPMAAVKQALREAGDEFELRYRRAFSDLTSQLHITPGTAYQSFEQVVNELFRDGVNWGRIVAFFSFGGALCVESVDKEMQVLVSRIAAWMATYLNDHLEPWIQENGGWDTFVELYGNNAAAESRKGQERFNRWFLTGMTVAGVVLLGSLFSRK
Method: as §2

GST [6] = biological target: T3, GST (Schistosoma japonicum, UniProt P08515); assay: Fluorescence polarization (FP) assay, GST; format: binding
T3 sequence (P08515 whole entry): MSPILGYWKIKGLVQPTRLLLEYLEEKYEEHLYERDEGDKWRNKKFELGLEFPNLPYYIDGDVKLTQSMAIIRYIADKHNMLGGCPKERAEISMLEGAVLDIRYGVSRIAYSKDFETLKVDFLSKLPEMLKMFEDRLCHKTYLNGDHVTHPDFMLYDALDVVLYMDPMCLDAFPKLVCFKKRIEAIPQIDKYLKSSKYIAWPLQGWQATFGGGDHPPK
Method: as §2

GST [7] = biological target: T3, GST; assay: Circular dichroism (CD) spectroscopy, GST; format: binding
Method: (§3) Circular dichroism (CD) spectroscopy. Stock solutions of 3 mM peptide in 30% acetonitrile/water were added to 0.5 mL of 2 μM purified GST-proteins in PBS, pH 7.6. CD spectra were obtained in a 0.2 cm pathlength cell at 20° C. using an AVIV 62 DS spectropolarimeter for a wavelength range from 200 to 260 nm with a step size of 1 nm averaged for 5 sec. Three spectra were corrected for background and averaged for each sample. The Kd was determined using nonlinear regression analysis for a one-site-binding model (χ2>0.98). Stoichiometry was determined from a […] (Jones, G. et al. 2002 Tet. Let. 43 :6079-6082).

GST-Bcl-2 [8] = biological target: T2, GST-Bcl-2; assay: Circular dichroism (CD) spectroscopy, GST-Bcl-2; format: binding
Method: as §3

Bcl-2 [9] = biological target: T1, Bcl-2; assay: FP competition assay on Bcl-2; format: binding
Method: as §2
Target sequence in this assay (P10415 whole entry, the tested form may be a part): as the sequence (P10415 whole entry, the tested form may be a part) above

Bcl-XL = Bcl-XL (Homo sapiens, UniProt Q07817); assay: Circular dichroism (CD) spectroscopy, Bcl-XL; format: binding
Bcl-XL, sequence (Q07817 whole entry, species assumed): as the sequence (Q07817 whole entry, species assumed) above
Method: as §3

Bcl-2 [10] = biological target: T1, Bcl-2; assay: Binding to Bcl-2, method not stated; set-up: precipitated endogenous Bcl-2 in cells treated with L-NuBCP-9-r8 or D-NuBCP-9-r8; endogenous in cells
Target sequence in this assay (P10415 whole entry, species assumed, the tested form may be a part): as the sequence (P10415 whole entry, the tested form may be a part) above

Bcl-2 [11] = biological target: T1, Bcl-2; assay: Immunoprecipitation of endogenous Bcl-2 by anti-Bcl-2/BH3 antibody in treated cells; format: cell-based; set-up: precipitated endogenous Bcl-2 in cells treated with L-NuBCP-9-r8 or D-NuBCP-9-r8; endogenous in cells
Target sequence in this assay (P10415 whole entry, species assumed, the tested form may be a part): as the sequence (P10415 whole entry, the tested form may be a part) above

Bcl-2 [12] = biological target: T1, Bcl-2; assay: Bcl-2 conformational change, anti-Bcl-2/BH3 antibody staining of HEK293T cells transfected with Bcl-2; format: cell-based; set-up: expressed in transfected cells; host or cells: HEK293T; conditions: flow cytometry
Method: Such a Bcl-2 conformation is recognized by an anti-Bcl-2 antibody raised against the Bcl-2 BH3 domain. To determine whether NuBCP-9 induced a Bcl-2 conformational change, flow cytometric assays were conducted which HEK293T cells transfected with Bcl-2 were exposed to NuBCPs and subsequently stained with the anti-Bcl-2/BH3 antibody.
Target sequence in this assay (P10415 whole entry, the tested form may be a part): as above

For “acetyl---GDWIDSILAFSRSLHSLLVDKKC-X-rrrrrrrr (Ac-GDWIDSILAFSRSLHSLLVDKKC[Ahx][dR][dR][dR][dR][dR][dR][dR][dR]-NH2; also: Cys thiol joined to chloroacetyl-Ahx by thioether) [NuBCP-20-r8]”, which apoptotic effects [1] is on record?
The apoptotic effects was “potent apoptotic effects”.

And the “interaction with Bcl-2 by co-immunoprecipitation” value (Bcl-2 [2])?
The value was “binding”.

And the apoptosis [3]?
Its apoptosis is “resistant”.

And the apoptosis [4]?
Its apoptosis is over 80%.

What about the “apoptotic potency compared with BH3 peptides derived from t-Bid” value (H460 lung cancer cells) of the same compound?
Its value is “more potent”.

For `CN[C@@H]1C[C@H]2O[C@@](C)([C@@H]1OC)n1c3ccccc3c3c4c(c5c6ccccc6n2c5c31)C(=O)NC4` [staurosporine], which “effect of stable expression of Bcl-2 on induced apoptosis/cell death” value (Jurkat or CEM cells) is on record?
Its value is “attenuated”.

With “FITC-NuBCP-9-r8: FITC-conjugated NuBCP-9-r8 peptide for FP assays ({FITC}-FSRSLHSLLG[Ahx][dR][dR][dR][dR][dR][dR][dR][dR]-NH2)” as the compound, how does the “FP of FITC-peptide induced by GST-Bcl-2” value (GST-Bcl-2 [5]) read?
Its value is “concentration-dependent FP”.

And the “FP of FITC-peptide induced by GST-Bcl-XL” value (GST-Bcl-XL)?
Its value is “not”.

What about the “FP of FITC-peptide induced by GST” value (GST [6]) of the same compound?
Its value is “not”.

Which “FP of FITC-peptide induced by GST-Bcl-2” value (GST-Bcl-2 [5]) does the source give for “FITC-NuBCP-9/AA-r8: FITC-conjugated NuBCP-9/AA-r8 peptide ({FITC}-ASRSLHSLAG[Ahx][dR][dR][dR][dR][dR][dR][dR][dR]-NH2)” here?
The value was “little affected”.

Which results are given for “NuBCP-9/AA: unconjugated NuBCP-9 with Ala substituted for the terminal amino acids (Ac-ASRSLHSLAG[Ahx][dR][dR][dR][dR][dR][dR][dR][dR]-NH2; SMILES CC(=O)N[C@@H](C)C(=O)N[C@@H](CO)C(=O)N[C@@H](CCCNC(=N)N)C(=O)N[C@@H](CO)C(=O)N[C@@H](CC(C)C)C(=O)N[C@@H](Cc1c[nH]cn1)C(=O)N[C@@H](CO)C(=O)N[C@@H](CC(C)C)C(=O)N[C@@H](C)C(=O)NCC(=O)NCCCCCC(=O)N[C@H](CCCNC(=N)N)C(=O)N[C@H](CCCNC(=N)N)C(=O)N[C@H](CCCNC(=N)N)C(=O)N[C@H](CCCNC(=N)N)C(=O)N[C@H](CCCNC(=N)N)C(=O)N[C@H](CCCNC(=N)N)C(=O)N[C@H](CCCNC(=N)N)C(=O)N[C@H](CCCNC(=N)N)C(N)=O)”?
effect on CD spectra for GST (GST [7]): no effect; changes in GST-Bcl-2 protein CD spectra (GST-Bcl-2 [8]; peptide 30 μM, GST-Bcl-2 2 μM): not; competition for binding of FITC-L-NuBCP-9-r8 or FITC-D-NuBCP-9-r8 to Bcl-2 (Bcl-2 [9]): did not; effect on CD spectra for Bcl-XL (Bcl-XL): no effect

What does the source list for `CC(=O)N[C@@H](Cc1ccccc1)C(=O)N[C@@H](CO)C(=O)N[C@@H](CCCNC(=N)N)C(=O)N[C@@H](CO)C(=O)N[C@@H](CC(C)C)C(=O)N[C@@H](Cc1c[nH]cn1)C(=O)N[C@@H](CO)C(=O)N[C@@H](CC(C)C)C(=O)N[C@@H](CC(C)C)C(N)=O` [NuBCP-9, FSRSLHSLL] (Ac-FSRSLHSLL-NH2)?
effect on CD spectra for GST (GST [7]): no effect; Kd (GST-Bcl-2 [8]): 2100 ± 200 nM; competition for binding of FITC-L-NuBCP-9-r8 or FITC-D-NuBCP-9-r8 to Bcl-2 (Bcl-2 [9]): competed; effect on CD spectra for Bcl-XL (Bcl-XL): no effect

With `CN(C)CC[C@H](CSc1ccccc1)Nc1ccc(S(=O)(=O)NC(=O)c2ccc(N3CCN(Cc4ccccc4-c4ccc(Cl)cc4)CC3)cc2)cc1[N+](=O)[O-]` [ABT-737, reference compound] as the compound, how does the “competition for binding of FITC-L-NuBCP-9-r8 or FITC-D-NuBCP-9-r8 to Bcl-2” value (Bcl-2 [9]) read?
The value was “failure”.

With “D-Bad BH3 peptide-CC-Ant: D-enantiomer of Bad BH3 peptide, disulfide-linked to Ant (Ac-NLWAAQRYGRELRRMADEFVDAFKKCCRQIKIWFQNRRMKWKK-NH2; disulfide 26-27; not fully specified (some residues); also: D-amino acids, extent within chain not given here) [reference compound]” as the compound, how does the “binding to Bcl-2” value (Bcl-2 [10]) read?
The value was “did not bind”.

And the apoptotic effect (H460 lung cancer cells; H460 cells, peptides conjugated with CPP, 10 μM)?
The apoptotic effect was “not apoptotic”.

For “Bad BH3 peptide-CC-Ant: Bad BH3 peptide, Ser replaced with Ala, disulfide-linked to Ant (Ac-NLWAAQRYGRELRRMADEFVDAFKKCCRQIKIWFQNRRMKWKK-NH2; disulfide 26-27; also: Bad BH3 peptide and Ant are two peptides joined by C26-C27 disulfide, no peptide bond)”, which “effect of stable expression of Bcl-2 on induced apoptosis/cell death” value (Jurkat or CEM cells) is on record?
The value was “attenuated”.

Which “precipitation of endogenous Bcl-2 by anti-Bcl-2/BH3 antibody” value (Bcl-2 [11]) does the source give for “t-Bid BH3 peptide-r8: BH3 peptide derived from pro-apoptotic Bcl-2 family member t-Bid, conjugated with r8 (Ac-EDIIRNIARHLAQVGDSMDRC[Ahx][dR][dR][dR][dR][dR][dR][dR][dR]-NH2; also: Cys thiol joined to chloroacetyl-Ahx by thioether) [reference compound]” here?
The value was “not”.

What about the “Bcl-2 immunofluorescence by anti-Bcl-2/BH3 antibody” value (Bcl-2 [12]) of the same compound?
The value was “did not show any Bcl-2 immunofluorescence”.

— patent US7745574B2, “Compounds that regulate apoptosis” (The Burnham Institute, priority 2005, dated 2010)
